Experimental data reported in publication PMC9813109, “Phase I dose-escalation study of milademetan in patients with relapsed or refractory acute myeloid leukemia” (International Journal of Hematology, 2022).

What was measured:
MDM2–p53 interaction = tested on: MDM2–p53 interaction; set-up: method as in PMID 31310659, PMID 30724592; details: in vitro studies; cited from earlier work
[1] = tested on: R/R AML (blast count in bone marrow aspirate); assay: Efficacy assessment: best response and bone marrow blast count; assay type: in vivo, human; details: for Best response: Not applicable: SD < 3 months was deemed not applicable
Description: Bone marrow and peripheral blood results were used to assess the antitumor effect of milademetan. AML response criteria were defined as shown in Supplementary Table 1. A morphologic leukemia-free state (MLFS) was defined as bone marrow blasts < 5% in the absence of blasts with Auer rods and the absence of extramedullary leukemia. The presence/absence of hematological recovery or blood transfusion was not considered. Stable disease (SD) was defined as an absence of CR, CR with incomplete hematologic recovery (CRi) or partial hematologic recovery (CRh), partial remission (PR), or MLFS, provided that the criteria for the progressive disease were not met. SD had to last at least 3 months (assessed as SD more than thrice in a row) after initiating milademetan treatment. SD < 3 months was deemed not applicable. The best-measured response was defined as the best overall response (all time points after the start of study treatment until the end of treatment). The composite CR (CRc) duration was defined as the time between when the criteria for […] first met and when a relapse was first confirmed. In addition to descriptive statistics, the geometric mean and geometric coefficient of variation were used to describe the PK parameters. All analyses were conducted using SAS® software (version 9.4; SAS Institute Inc., Cary, NC, USA). The time courses of mean plasma milademetan concentrations on days 1 and 14 of cycle 1 (linear scale) in the QD 14/28-day schedule were used for pharmacokinetic analysis. The best response was measured as CR, CRh, CRi, or PR. For efficacy analysis, a waterfall plot of the best percent change from baseline blast count in bone marrow aspirate on the QD 14/28-day schedule was drawn to assess the blast count reduction. In addition, line plots of individual serum MIC-1 levels were drawn in the QD 14/28-day schedule for the pharmacodynamics analysis set.

Platelet = tested on: Platelet; set-up: species or system human; details: in vivo
Description: Patients were followed up until the AEs resolved.

[2] = tested on: hematologic malignancies like R/R AML and high-risk myelodysplastic syndrome; details: QD 14/28-day schedule, USA phase I, ref NCT02319369, data not published; cited from earlier work

## CC1(C)CCC2(CC1)N[C@@H](C(=O)N[C@@H]1CC[C@@H](C(N)=O)OC1)[C@H](c1ccnc(Cl)c1F)[C@]21C(=O)Nc2cc(Cl)ccc21 [milademetan]
MDM2–p53 interaction
  Effect on MDM2–p53 interaction: inhibits the MDM2–p53 interaction
[1]; 90 mg/day (n = 4)
  Best response: Morphologic leukemia-free state: 0 (0.0) n, %
  Best response: Progressive disease: 1 (25.0) n, %
  Best response: Stable disease: 1 (25.0) n, %
  Best response: Not applicable: 2 (50.0) n, %
[1]; 120 mg/day (n = 5)
  Best response: Morphologic leukemia-free state: 1 (20.0) n, %
  Best response: Progressive disease: 1 (20.0) n, %
  Best response: Stable disease: 0 (0.0) n, %
  Best response: Not applicable: 3 (60.0) n, %
[1]; 160 mg/day (n = 3)
  Best response: Morphologic leukemia-free state: 1 (33.3) n, %
  Best response: Progressive disease: 0 (0.0) n, %
  Best response: Stable disease: 0 (0.0) n, %
  Best response: Not applicable: 2 (66.7) n, %
[1]; 12 patients
  Patients with a ≥ 50% reduction in baseline blast count in the bone marrow aspirate: 33.3%
[1]; 12 patients, 90, 120 or 160 mg
  CR, CRh, CRi, or PR: None of the patients
[1]; 12 patients, TP53 wild at baseline
  MLFS, patients: 16.7%
[1]; Total (n = 12)
  Best response: Morphologic leukemia-free state: 2 (16.7) n, %
  Best response: Progressive disease: 2 (16.7) n, %
  Best response: Stable disease: 1 (8.3) n, %
  Best response: Not applicable: 7 (58.3) n, %
Platelet
  Mean platelet count vs baseline: decreased from the baseline in all cohorts
[2]
  Maximum tolerated dose (MTD): 160 mg
